These results are taken from patent publication US20260366053A1, “SYNTHESIS OF COTYLENIN AND ANALOGS THEREOF FOR THE DEVELOPMENT OF SELECTIVE MODULATORS OF 14-3-3 PROTEIN-PROTEIN INTERACTION” (priority 2022, published 2026).

“Also recorded” adds a separate entry of the source.

For data set [1], the target named is P450BM3 variant MERO1 L75A (Priestia megaterium, UniProt P14779, A185V/A291V/A83G/E253G/F206C/F88V/H237Q/L354V/L76A/P143S/R256S/S227R/T176I/V79A). The conditions noted are these: role: substrate; cofactor Na2NADP 0.2 eq.; lysate, 22 °C, 16 h, pH 8.0.
The target of data set [2] is P450BM3 variant MERO1 FT (MERO1 L181F V184T) (Priestia megaterium, UniProt P14779, A185T/A291V/A83G/E253G/F206C/F88V/H237Q/L182F/L354V/P143S/R256S/S227R/T176I/V79A). To be noted: role: substrate; cofactor Na2NADP 0.2 eq.; lysate, 22 °C, 16 h, pH 8.0.
The next data set deals with Wild-type Bsc9 (Alternaria brassicicola, UniProt D7UTD1). Type of data set: biochemical. The conditions noted are these: for conversion: pH 8.5.
The next data set deals with MoBsc9. Type of data set: biochemical, Magnaporthe oryzae. The conditions noted are these: for conversion: role: substrate, cosubstrate α-ketoglutarate, 1 mg scale, clarified lysate, 15 °C, 10 h, pH 8.5.
In data set [3] the test system is 14-3-3 proteins and their clients. To be noted: cited from earlier work.
Another data set relates to 14-3-3 PPI. The conditions noted are these: cited from earlier work.
In another data set the target is BscD (Pseudocercospora fijiensis, UniProt M2ZB93). To be noted: role: substrate; E. coli lysates.
Another data set deals with Bsc9 “VR” (Alternaria brassicicola, UniProt D7UTD1, DEL103-114/G116R/H115V). The conditions noted are these: role: substrate.
In data set [4] the test system is 14-3-3sigma and the C-terminal of TASK-3. The conditions noted are these: structural; listed as cotylenol; cited from earlier work.
For data set [5], the system named is human myeloid leukemia cells. To be noted: listed as cotylenol; cited from earlier work.

Chain of P450BM3 variant MERO1 FT (MERO1 L181F V184T) (P14779 whole entry V79A/A83G/F88V/P143S/T176I/L182F/A185T/F206C/S227R/H237Q/E253G/R256S/A291V/L354V): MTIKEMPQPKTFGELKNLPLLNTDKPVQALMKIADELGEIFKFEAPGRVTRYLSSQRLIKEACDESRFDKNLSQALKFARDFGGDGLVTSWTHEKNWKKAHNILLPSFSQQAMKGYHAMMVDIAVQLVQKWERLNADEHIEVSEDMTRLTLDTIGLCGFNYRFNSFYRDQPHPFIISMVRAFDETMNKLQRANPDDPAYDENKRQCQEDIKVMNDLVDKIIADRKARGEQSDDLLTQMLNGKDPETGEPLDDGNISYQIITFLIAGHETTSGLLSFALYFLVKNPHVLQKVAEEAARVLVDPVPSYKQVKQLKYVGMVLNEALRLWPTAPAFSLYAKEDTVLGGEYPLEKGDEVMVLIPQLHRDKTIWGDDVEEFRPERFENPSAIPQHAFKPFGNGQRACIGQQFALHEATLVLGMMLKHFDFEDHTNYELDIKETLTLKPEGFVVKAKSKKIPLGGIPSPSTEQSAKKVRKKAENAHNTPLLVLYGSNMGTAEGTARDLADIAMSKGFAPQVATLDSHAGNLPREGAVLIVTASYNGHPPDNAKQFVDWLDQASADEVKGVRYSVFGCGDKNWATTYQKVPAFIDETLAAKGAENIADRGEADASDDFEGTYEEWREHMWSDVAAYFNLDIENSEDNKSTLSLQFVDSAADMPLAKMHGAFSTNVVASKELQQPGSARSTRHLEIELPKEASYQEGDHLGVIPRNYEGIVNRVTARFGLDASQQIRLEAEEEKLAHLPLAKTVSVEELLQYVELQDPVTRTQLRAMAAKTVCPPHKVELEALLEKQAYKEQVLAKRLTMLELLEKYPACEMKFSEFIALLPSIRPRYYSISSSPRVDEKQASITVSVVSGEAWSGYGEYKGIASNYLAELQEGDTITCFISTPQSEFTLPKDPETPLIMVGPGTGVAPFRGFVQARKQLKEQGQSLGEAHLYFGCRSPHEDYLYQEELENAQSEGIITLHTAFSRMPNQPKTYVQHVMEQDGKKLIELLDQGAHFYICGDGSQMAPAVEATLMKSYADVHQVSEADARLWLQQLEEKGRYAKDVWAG
Chain of P450BM3 variant MERO1 L75A (P14779 whole entry L76A/V79A/A83G/F88V/P143S/T176I/A185V/F206C/S227R/H237Q/E253G/R256S/A291V/L354V): as the sequence (P14779 whole entry V79A/A83G/F88V/P143S/T176I/L182F/A185T/F206C/S227R/H237Q/E253G/R256S/A291V/L354V) above, with L76A, F182L, T185V counted along it
Source text for BscD: The biocatalytic use of BscD and Bsc9 was investigated for the oxidation of 20.

As to `COC[C@@]1(O)CC[C@@H]2/C1=C\[C@@]1(C)CCC(C(C)C)=C1C[C@H](O)[C@@H]2C` [Compound 4], the “regioselectivity of hydroxylation at C13” value in [1] is “without any observable regioisomers”.

On to `COCC1=C2C[C@@]3(C)CCC(C(C)C)=C3CC(=O)[C@H](C)[C@@H]2CC1` [Compound 8], for which, in data set [2], the regioselectivity of oxidation result is “primarily at C4”.

Take `CC(C)C1=C2[C@@H](O)C(=O)[C@H](C)[C@@H]3CCC(=O)/C3=C/[C@@]2(C)CC1` [Compound 22]: at Wild-type Bsc9, the “conversion (in words)” value is recorded as “no further conversion”.

On to `COCC1=C2C[C@@]3(C)CCC(C(C)C)=C3C[C@H](O)[C@H](C)[C@@H]2CC1` [Compound 23], for which, on Wild-type Bsc9, the “selectivity (percent ratio of the desired product:total products)” value turned out to be 43% and the conversion turned out to be 37%. In the data set on MoBsc9, this compound yielded a conversion of 30%.

Regarding `C=CC(C)(C)OC[C@H]1O[C@H](O[C@@H]2C3=C([C@H](C)COC(C)=O)C[C@H](O)[C@]3(C)/C=C3/[C@@H](COC)CC[C@H]3[C@@H](C)[C@H]2O)[C@H](O)[C@@H](OC(C)=O)[C@@H]1O` [Compound 2], the molecular glue activity entry in [3] was “capable of acting as molecular glues”. Besides, the phytotoxicity entry with 14-3-3 PPI was “phytotoxins that target the 14-3-3 PPI”.

Consider `COCC1=C2C[C@@]3(C)CCC(C(C)C)=C3[C@@H](O)C(=O)[C@H](C)[C@@H]2CC1` [Compound 20], for which the “conversion (in words)” value at Wild-type Bsc9 was “moderate conversion”. Also, the values for the conversion on Wild-type Bsc9 and with MoBsc9 were 43% and 100%, respectively. The “reaction (in words)” value on BscD and on Bsc9 “VR” was “no reaction” each time.

Regarding `COC[C@@]1(O)CC[C@@H]2/C1=C\[C@@]1(C)CCC(C(C)C)=C1[C@@H](O)[C@H](O)[C@@H]2C` [Compound 3], the ternary complex formation entry in [4] was “form a ternary complex with 14-3-3sigma and the C-terminal of TASK-3; also recorded: a crystal structure of cotylenol in complex with 14-3-3s and a synthetic C-terminal hexapeptide of TASK-3 has also been solved”. In data set [5], the cytotoxicity result was “cytotoxic toward human myeloid leukemia cells; also recorded: moderate cytotoxicity on human myeloid leukemia cells”.

As to `COC[C@@]1(O)CC[C@@H]2/C1=C\[C@@]1(C)CCC(C(C)C)=C1[C@@H](O)C(=O)[C@@H]2C` [Compound 21], the “improvement in assay yield of 21” value in the data set with MoBsc9 (role: product, relative to Bsc9) was “ca. two-fold”.
